In patent US20220370471A1, “COMPOSITION AND METHOD FOR TREATMENT OF HIPPOCAMPAL SYNAPSE DYSFUNCTION AND COGNITIVE DEFICITS IN ALZHEIMER'S DISEASE” (BOARD OF REGENTS, THE UNIVERSITY OF TEXAS SYSTEM, priority 2019, published 2022):
Blank lines part the entries; values can stand above or below the compound they belong to. Square brackets hold non-standard residues; d marks the D form. Ends that are not written are not given here. Peptide text beside a SMILES is read from it. d2Nal = N[C@H](Cc1ccc2ccccc2c1)C(=O)O; Aib = CC(C)(N)C(=O)O

How the values were obtained:
DRD1 [1] = target: DRD1 (Homo sapiens, UniProt P21728); details: cited from earlier work
hippocampal neurons = experiment: Synaptic density (vGLUT1/PSD95) in cultured hippocampal neurons; type: cell-based, mouse; details: for Aβ-induced synaptic loss / synaptic density / synaptogenic effect, agonist alone: 1 μM ipamorelin or capromorelin; for Aβ-induced synaptic loss / synaptic density: alone or + 2 μM SKF81297
Method: Immunocytochemistry. […] NIS element software was used for image analysis. “Objective Count” dialog was used for intensity measurement. […] The overlapped dots represent synapses.
Primary hippocampal neuron culture. Hippocampal neuron cultures were prepared as previously described (15). In brief, mouse hippocampi were dissected from postnatal day 0-1 pups in cold HBSS. Cells were dissociated by using 0.025% trypsin at 37° C. for 15 minutes, followed by 10 times homogenization in ice cold DMEM. Dissociated cells were then passed through a 100 μm cell strainer (Corning) and centrifuged for 5 minutes at 210×g. The pellet was gently resuspended in neuron culture medium (Neurobasal A with 2% B27 supplement, 0.5 mM L-glutamine, Invitrogen) and plated on poly-D-lysine (Sigma-Aldrich) coated Lab-Tek chamber slides (Nunc, 177445) with appropriate densities.
Agonist treatment on primary cultured neurons. At 14 days in vitro (DIV14) hippocampal neurons were exposed to the synthetic growth hormone secretagogue receptor agonist MK0677 (Tocris, #5272, 1.5 μM) the dopamine D1-like receptor agonist SKF81297 (Sigma-Aldrich, #S143, 2 μM) or a mixture of MK0677 and SKF81297 for 5 minutes. The exposure was followed by immunostaining to examine the effects of Ghsr1α/Drd1 co-activation on Aβ induced synaptic loss or Ghsr1α/Drd1, Aβ/Ghsr1α interaction as described in previous sections.

[2] = system: hippocampal CA3-CA1 pathway; experiment: Long-term potentiation (fEPSP) in hippocampal slices; details: MK0677 1.5 μM, SKF81297 2 μM, alone or in combination
Method: For electrophysiological experiments, mice were anesthetized with isoflurane and decapitated. […] Slices were allowed to rest for 30 minutes after being transferred to the recording chamber before recordings began. Recordings of local field potentials (LFPs) were performed on an Axon Multiclamp 700B amplifier (Molecular Devices), and data were acquired and analyzed using AxoGraph X (AxoGraph Scientific). A tungsten concentric bipolar microelectrode (World Precision Instruments), and a recording glass electrode (1.5 MS2) filled with recording ACSF, were placed approximately 200 μm apart in the Schaffer collateral-commissural pathway in the CA1 region of the hippocampus. Pulses were delivered in 30 seconds intervals. Before baseline recordings commenced, input-output curves were taken, using 25-150 μA stimulation currents in 25 μA steps. Three sweeps were sampled at each stimulation intensity and averaged to represent the voltage response at each step. Recordings of baseline responses lasted for at least 40 minutes. Stimulation intensity was set to approximately 40% of the minimum intensity required to evoke the maximum response (based on the input-output curve). The stimulation intensity was kept consistent throughout the duration of the experiment. […] LTP was induced using a theta burst stimulation (TBS) protocol consisting of 10 bursts (5 pulses at 100 Hz) repeated at 5 Hz delivered two times 30 seconds apart. After LTP induction, LFPs were recorded for an additional 60 minutes. The slope of the field excitatory postsynaptic potential (fEPSP) was measured in Axograph scientific software and sweeps were averaged in bins of 5 for both the baseline and post LTP induction periods. Changes in LFPs are expressed as percentage change from the averaged baseline values.

Ghsr1α/Drd1 complex = target: T1, Ghsr1α/Drd1 complex (Mus musculus, UniProt Q61616+Q99P50); experiment: Duolink PLA of Ghsr1α/Drd1 complex in cultured hippocampal neurons; type: cell-based; details: oligomeric Aβ42 1 μM, 24 hours; 1.5 μM MK0677, 2 μM SKF81297, or in combination
T1 construct: endogenous in cells; host or cells: primary mouse hippocampal neurons (P0-1, DIV14)
From the text: (§1) Duolink In Situ Proximity Ligation Assay (PLA). […] PLA analysis was referred to previous report (66 67). NIH Image J was used for PLA signal quantification.
(§2) Agonist treatment on primary cultured neurons. […] The exposure was followed by immunostaining to examine the effects of Ghsr1α/Drd1 co-activation on Aβ induced synaptic loss or Ghsr1α/Drd1, Aβ/Ghsr1α interaction as described in previous sections.

Aβ/Ghsr1α complex = target: T2, Aβ/Ghsr1α complex (Mus musculus, UniProt Q99P50); experiment: Duolink PLA of Aβ/Ghsr1α complex in cultured hippocampal neurons; type: cell-based; details: oligomeric Aβ42 1 μM, 24 hours; 1.5 μM MK0677, 2 μM SKF81297, or in combination
T2 construct: endogenous in cells; host or cells: primary mouse hippocampal neurons; Aβ42 peptide purchased (GenicBio, A-43-T-1000)
From the text: as §1, §2

5×FAD mice = details: systemic ghrelin treatment; cited from earlier work
Drd1 [3] = target: T3, Drd1 (Mus musculus, UniProt Q61616, INS245CCPGCC); experiment: FlAsH-based FRET assay of Drd1 activity in HEK 293T cells; type: cell-based; details: oligomeric Aβ42 2 μM preincubation; SKF81297 100 μM
T3 construct: expressed in transfected cells; host or cells: HEK 293T
Method: GHSR1α forms a complex with DRD1 to regulate DRD 1-mediated hippocampal synaptic strength and memory (8). In order to fully evaluate the influence of Aβ on GHSR1α, the inventor next examined whether oligomeric Aβ42 affects heterodimerization of GHSR1α and DRD1 by using HEK 293T cells co-expressing Ghsr1α and Drd1 (FIG. 2c, FIG. S2). After an incubation with oligomeric Aβ42 (5 μM) for 24 hours, the interaction between Ghsr1α and Drd1 determined by Duolink PLA was suppressed (FIGS. 2d-e), indicating the inhibitory effect of oligomeric Aβ42 on Ghsr1α/Drd1 heterodimerization. To test whether GHSR1α/DRD1 interaction was modulated in a clinical setting, the inventor examined hippocampal tissues from 5 patients with AD and compared with tissues from 5 healthy controls. […] Decreased Ghsr1α/Drd1 heterodimerization also occurred in 5×FAD mice, and this effect was exacerbated with age (FIGS. 2h-i). […]
FlAsH-based FRET. […] Fluorescence signals were monitored on microplate reader (BioTek Cytation 5) before and after the treatments. […] Area scanning read mode was used to correct artificial inaccuracies. The FRET ratio (FFlAsH/FECFP) was calculated according to equation as previously reported (69): […]

Ghsr1α Δaa42-116 = target: T4, Ghsr1α Δaa42-116 (Mus musculus, UniProt Q99P50, DEL42-116); experiment: Duolink PLA and Co-IP of oligomeric Aβ42 with Ghsr1α mutants in HEK 293T cells; type: binding; details: 5 μM oligomeric Aβ42, 24 hours; Duolink PLA, validated by Co-IP
T4 construct: Mouse full length Ghsr1α cDNA (NCBI Gene ID: 208188) was purchased from OriGene (MR226073); expressed in transfected cells; host or cells: HEK 293T
From the text: Aβ3 physically interacts with GHSR1α. To determine whether GHSR1α expression is changed in the hippocampus in AD, the inventor performed immunohistochemical and membrane blotting assays in post-mortem hippocampal tissues from 4 subjects with AD and 4 non-demented healthy donors (non-AD). He observed increased GHSR1α expression in hippocampal tissues from patients with AD (FIGS. S1a-b and Table S1), which positively correlated with the amounts of soluble Aβ40 and Aβ42 in hippocampi (FIGS. S1c-d). […] Because Aβ binds to multiple proteins (14-16), the inventor next explored whether GHSR1α is an Aβ binding target. In order to examine the interaction between GHSR1α and AP, he labeled GHSR1α and Aβ with their specific antibodies and ran Duolink proximity ligation assay (PLA), which is a sensitive method to visualize and quantify direct protein interactions in situ (17), on hippocampal tissues from 4 subjects with AD and 4 healthy donors. The inventor observed Aβ3/GHSR1α complexes in hippocampi from patients with AD (FIGS. 1a-b). […] HEK 293T cells expressing full-length mouse Ghsr1α or its mutants were exposed to 5 μM oligomeric Aβ42 for 24 hours followed by Duolink PLA to detect Aβ/Ghsr1α complexes. […]
(§3) Duolink In Situ Proximity Ligation Assay (PLA). […] NIH Image J was used for PLA signal quantification. […]

Drd1 [4] = target: T5, Drd1 (Mus musculus, UniProt Q61616); experiment: Duolink PLA and Co-IP of oligomeric Aβ42 with Drd1 in HEK 293T cells; type: binding; details: oligomeric Aβ42 24 hours, Drd1-expressing HEK 293T cells
T5 construct: expressed in transfected cells; host or cells: HEK 293T

Ghsr1α = target: T6, Ghsr1α (Mus musculus, UniProt Q99P50, INS247CCPGCC); experiment: FlAsH-based FRET assay of Ghsr1α activity in HEK 293T cells; type: cell-based; details: oligomeric Aβ42 2 μM, 5 minutes pre-incubation
T6 construct: Mouse full length Ghsr1α cDNA (NCBI Gene ID: 208188) was purchased from OriGene (MR226073); expressed in transfected cells; host or cells: HEK 293T
From the text: FlAsH-based FRET was created by structural dynamics of Ghsr1α with FlAsH in the intercellular loop 3 and enhanced cyan fluorescent protein (ECFP) in the C-terminus (Ghsr1α^FlAsH/ECFP).
FlAsH-based FRET. […] The CCPGCC motif which has higher binding affinity for FlAsH was inserted in the third intracellular loop between Va1247 and Gly248 of Ghsr1α cDNA or between Thr245 and Gly246 of Drd1 cDNA. […] Fluorescence signals were monitored on microplate reader (BioTek Cytation 5) before and after the treatments. […] Area scanning read mode was used to correct artificial inaccuracies. The FRET ratio (FFlAsH/FECFP) was calculated according to equation as previously reported (69):
The terms a and b are correction factors for the two leakages mentioned above. a is the ratio of the direct emission of donor, ECFP at 535 nm, to its emission at 475 nm when excited at 425 nm which was calculated with cells transfected with pcDNA3-Ghsr1α^FlAsH/ECFP or pcDNA3-Drd1^FlAsH/ECFP only. b is the ratio of the direct emission of FlAsH at 535 nm when excited at 425 nm to its emission at 535 nm when excited at 500 nm which was calculated with FlAsH labeled untransfected cells.

Ghsr1α/Drd1 = target: T7, Ghsr1α/Drd1 (Mus musculus, UniProt Q99P50); experiment: Duolink PLA of Ghsr1α/Drd1 interaction in co-expressing HEK 293T cells; type: cell-based; details: oligomeric Aβ42 5 μM, 24 hours
T7 construct: Mouse full length Ghsr1α cDNA (NCBI Gene ID: 208188) was purchased from OriGene (MR226073); expressed in transfected cells; host or cells: HEK 293T
Method: GHSR1α forms a complex with DRD1 to regulate DRD 1-mediated hippocampal synaptic strength and memory (8). In order to fully evaluate the influence of Aβ on GHSR1α, the inventor next examined whether oligomeric Aβ42 affects heterodimerization of GHSR1α and DRD1 by using HEK 293T cells co-expressing Ghsr1α and Drd1 (FIG. 2c, FIG. S2). After an incubation with oligomeric Aβ42 (5 μM) for 24 hours, the interaction between Ghsr1α and Drd1 determined by Duolink PLA was suppressed (FIGS. 2d-e), indicating the inhibitory effect of oligomeric Aβ42 on Ghsr1α/Drd1 heterodimerization. To test whether GHSR1α/DRD1 interaction was modulated in a clinical setting, the inventor examined hippocampal tissues from 5 patients with AD and compared with tissues from 5 healthy controls. […] Decreased Ghsr1α/Drd1 heterodimerization also occurred in 5×FAD mice, and this effect was exacerbated with age (FIGS. 2h-i). […] FlAsH-based FRET assay was performed to examine the effect of oligomeric Aβ42 ([…]) on agonist (SKF81297 100 μM)-induced Drd1 activity in HEK 293T cells expressing Drd1 with FlAsH in the intercellular loop 3 and ECFP in the C-terminus (Drd1^FlAsH/ECFP). […]
as §3

T6 sequence (Q99P50 with tags, fused parts or gaps INS247CCPGCC): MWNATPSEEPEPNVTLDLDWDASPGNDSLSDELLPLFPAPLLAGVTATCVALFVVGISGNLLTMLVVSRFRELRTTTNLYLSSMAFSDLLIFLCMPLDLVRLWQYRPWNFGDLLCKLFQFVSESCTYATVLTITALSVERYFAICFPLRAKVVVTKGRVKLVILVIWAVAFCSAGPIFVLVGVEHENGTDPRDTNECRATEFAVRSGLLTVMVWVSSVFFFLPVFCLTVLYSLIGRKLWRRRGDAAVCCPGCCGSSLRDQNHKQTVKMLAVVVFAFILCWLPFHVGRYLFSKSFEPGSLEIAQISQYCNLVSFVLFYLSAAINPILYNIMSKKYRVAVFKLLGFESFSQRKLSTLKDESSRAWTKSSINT
DRD1, sequence (P21728 whole entry, species assumed): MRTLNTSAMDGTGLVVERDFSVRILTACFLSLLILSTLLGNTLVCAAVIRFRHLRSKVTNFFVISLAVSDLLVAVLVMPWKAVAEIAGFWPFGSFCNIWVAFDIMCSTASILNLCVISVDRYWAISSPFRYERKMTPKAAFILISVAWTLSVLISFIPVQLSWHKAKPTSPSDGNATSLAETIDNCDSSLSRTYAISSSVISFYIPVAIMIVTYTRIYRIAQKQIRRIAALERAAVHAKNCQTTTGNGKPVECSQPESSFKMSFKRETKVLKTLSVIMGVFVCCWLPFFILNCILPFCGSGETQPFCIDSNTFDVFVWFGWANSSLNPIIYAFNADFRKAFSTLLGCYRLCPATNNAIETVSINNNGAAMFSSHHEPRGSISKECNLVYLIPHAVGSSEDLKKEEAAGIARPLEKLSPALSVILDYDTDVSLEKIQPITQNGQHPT
T3 sequence (Q61616 with tags, fused parts or gaps INS245CCPGCC): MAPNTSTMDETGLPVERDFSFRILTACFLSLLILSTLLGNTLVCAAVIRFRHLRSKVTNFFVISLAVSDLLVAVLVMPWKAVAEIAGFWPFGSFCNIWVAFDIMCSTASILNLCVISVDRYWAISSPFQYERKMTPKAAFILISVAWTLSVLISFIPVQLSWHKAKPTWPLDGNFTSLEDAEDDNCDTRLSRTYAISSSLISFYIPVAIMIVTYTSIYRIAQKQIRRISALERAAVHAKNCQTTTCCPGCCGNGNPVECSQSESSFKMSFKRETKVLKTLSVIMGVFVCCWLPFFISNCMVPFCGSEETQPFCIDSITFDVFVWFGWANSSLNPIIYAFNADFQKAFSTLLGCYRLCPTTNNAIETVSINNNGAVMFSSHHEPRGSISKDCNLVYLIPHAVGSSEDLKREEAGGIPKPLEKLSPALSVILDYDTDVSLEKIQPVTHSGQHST
T4 sequence (Q99P50 with tags, fused parts or gaps DEL42-116): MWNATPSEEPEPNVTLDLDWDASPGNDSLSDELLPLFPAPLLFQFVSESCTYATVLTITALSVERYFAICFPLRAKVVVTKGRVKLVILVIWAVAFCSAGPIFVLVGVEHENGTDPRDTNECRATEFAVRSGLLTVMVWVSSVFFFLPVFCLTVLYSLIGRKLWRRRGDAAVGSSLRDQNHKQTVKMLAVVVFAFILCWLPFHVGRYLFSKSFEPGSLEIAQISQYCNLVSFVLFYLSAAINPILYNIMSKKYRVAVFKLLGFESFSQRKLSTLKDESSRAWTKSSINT
T5 sequence (Q61616 whole entry): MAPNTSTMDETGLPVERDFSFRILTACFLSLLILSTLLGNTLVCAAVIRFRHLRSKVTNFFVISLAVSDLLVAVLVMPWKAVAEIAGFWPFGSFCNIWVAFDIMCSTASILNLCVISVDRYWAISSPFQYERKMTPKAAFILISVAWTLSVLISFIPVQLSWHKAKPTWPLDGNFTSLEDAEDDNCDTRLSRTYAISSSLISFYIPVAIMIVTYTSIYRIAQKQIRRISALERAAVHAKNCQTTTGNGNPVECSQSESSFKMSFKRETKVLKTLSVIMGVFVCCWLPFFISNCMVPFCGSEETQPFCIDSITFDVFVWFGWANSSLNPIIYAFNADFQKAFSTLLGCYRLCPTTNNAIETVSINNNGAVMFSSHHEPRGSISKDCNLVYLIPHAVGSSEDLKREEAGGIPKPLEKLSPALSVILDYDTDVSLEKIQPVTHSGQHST
T1 sequence (Q99P50 whole entry): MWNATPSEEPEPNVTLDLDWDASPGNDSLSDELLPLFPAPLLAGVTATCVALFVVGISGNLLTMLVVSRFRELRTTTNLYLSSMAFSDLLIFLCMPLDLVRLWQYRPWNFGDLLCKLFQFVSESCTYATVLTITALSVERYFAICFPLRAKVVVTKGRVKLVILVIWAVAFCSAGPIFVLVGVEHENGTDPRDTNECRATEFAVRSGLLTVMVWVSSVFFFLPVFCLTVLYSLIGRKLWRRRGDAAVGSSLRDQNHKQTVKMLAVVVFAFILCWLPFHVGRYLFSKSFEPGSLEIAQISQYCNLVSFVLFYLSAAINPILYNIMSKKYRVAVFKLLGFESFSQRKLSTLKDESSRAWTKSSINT
T1 sequence (Q61616 whole entry): as the sequence (Q61616 whole entry) above
T2 sequence (Q99P50 whole entry): as the sequence (Q99P50 whole entry) above
T2 sequence (Q61616 whole entry, further chain): as the sequence (Q61616 whole entry) above
T7 sequence (Q99P50 whole entry): as the sequence (Q99P50 whole entry) above

Compound: Oc1cc2c(cc1O)[C@H]1c3ccccc3CN[C@@H]1CC2 (racemic) [dihydrexidine]
binding to DRD1 / DRD2 (DRD1 [1]): much weaker binding affinity

Compound: Oc1cc2c(cc1O)C(c1ccccc1)CNCC2 (stereo not shown) [SKF38393]
binding to DRD1 / DRD2 (DRD1 [1]): selectively bind DRD1

Compound: Oc1cc2c(c(Cl)c1O)CCNCC2c1ccccc1 (stereo not shown) [SKF81297]
synaptic density / oligomeric Aβ42-induced synapse loss (hippocampal neurons; oligomeric Aβ42 1 μM, 24 hours, 1.5 μM MK0677, 2 μM SKF81297, or in combination): failed to alleviate
synaptic density, agonist alone (hippocampal neurons; without oligomeric Aβ42, MK0677 at doses greater than 1.5 μM, SKF81297 2 μM): increased synaptic density
stimulus-evoked hippocampal LTP in 5×FAD slices ([2]; slices from 4 month-old 5×FAD mice): no effect
hippocampal LTP in non-Tg slices ([2]; slices from 4 month-old non-Tg mice): no effect
Ghsr1α/Drd1 complex formation (Ghsr1α/Drd1 complex): not the agonists alone
Aβ/Ghsr1α complex formation (Aβ/Ghsr1α complex): not MK0677 or SKF81297 alone

Compound: CN1N=C2CCN(C(=O)[C@@H](COCc3ccccc3)NC(=O)C(C)(C)N)C[C@@]2(Cc2ccccc2)C1=O [capromorelin]
Aβ-induced synaptic loss / synaptic density (hippocampal neurons; oligomeric Aβ42 1 μM, 24 hours): could ameliorate
synaptogenic effect, agonist alone (hippocampal neurons; without oligomeric Aβ42): comparable synaptogenic effect with ghrelin

Compound: CC(C)(N)C(=O)N[C@@H](Cc1c[nH]cn1)C(=O)N[C@H](Cc1ccc2ccccc2c1)C(=O)N[C@H](Cc1ccccc1)C(=O)N[C@@H](CCCCN)C(N)=O [ipamorelin] (H-[Aib]H[d2Nal][dF]K-NH2)
Aβ-induced synaptic loss / synaptic density (hippocampal neurons; oligomeric Aβ42 1 μM, 24 hours): could ameliorate
synaptogenic effect, agonist alone (hippocampal neurons; without oligomeric Aβ42): comparable synaptogenic effect with ghrelin

Compound: ghrelin: the natural ligand of GHSR1α (GSSFLSPEHQRVQQRKESKKPPAKLQPR; ends and bridges not checked; UniProt Q9UBU3 24-51, looked up)
hippocampal Aβ load in 5×FAD mice (5×FAD mice): did not affect hippocampal Aβ load

impact on agonist-induced Drd1 activation (Drd1 [3]): no impact
interaction with Ghsr1α mutant devoid of aa42-116 (Ghsr1α Δaa42-116): no interaction
Aβ/DRD1 complexes (Drd1 [4]): not observed
impact on FRET ratio in vehicle-treated cells (Ghsr1α; no agonist): no impact
effect on agonist-induced Ghsr1α activation (Ghsr1α; then MK0677 50 μM): suppressed
interaction between Ghsr1α and Drd1 (Duolink PLA) (Ghsr1α/Drd1): suppressed
Compound: oligomeric Aβ42: Aβ42 peptide (GenicBio) incubated at 4° C. for 24 hours to prepare oligomers
